Assay results from the NIST ThermoML archive (doi:10.1016/j.jct.2005.02.011).

What was measured:
[1] = xn = mol fraction of the nth substance listed; settings: 298.15 K, 101.33 kPa, Liquid
[2] = 298.15 K; 101.33 kPa; Liquid
[3] = excess molar enthalpy (molar enthalpy of mixing); xn = mol fraction of the nth substance listed; settings: 298.15 K, 101.33 kPa, Liquid

COCCO [2-methoxyethan-1-ol] + COC(F)(F)C(F)(F)C(F)(F)C(F)(F)F
Settings | mass density [kg/m3]
[1], x2 = 0 | 960.01

CCCCOCCO [2-butoxyethan-1-ol]
Settings | mass density [kg/m3]
[2] | 896.25

COC(F)(F)C(F)(F)C(F)(F)C(F)(F)F [1-methoxy-nonafluorobutane]
Settings | mass density [kg/m3]
[2] | 1516.5

COC(F)(F)C(F)(F)C(F)(F)C(F)(F)F [1-methoxy-nonafluorobutane] + CCCCOCCO
Settings | excess molar enthalpy, [3] [kcal/mol] | mass density, [1] [kg/m3]
x1 = 0.02507 | – | 915.04
x1 = 0.05001 | 0.04 | –
x1 = 0.05002 | – | 932.88
x1 = 0.1 | 0.0726 | –
x1 = 0.1001 | – | 969.14
x1 = 0.1499 | – | 1004.19
x1 = 0.1998 | – | 1038.73
x1 = 0.2 | 0.122 | –
x1 = 0.2497 | – | 1072.68
x1 = 0.2995 | – | 1105.83
x1 = 0.3 | 0.157 | –
x1 = 0.3499 | – | 1138.71
x1 = 0.4001 | 0.18 | –
x1 = 0.41 | – | 1176.96
x1 = 0.4499 | – | 1201.93
x1 = 0.5001 | 0.195 | –
x1 = 0.5155 | – | 1242.24
x1 = 0.5499 | – | 1262.86
x1 = 0.5501 | 0.2 | –
x1 = 0.5999 | – | 1292.53
x1 = 0.6001 | 0.202 | –
x1 = 0.65 | – | 1321.64
x1 = 0.6501 | 0.203 | –
x1 = 0.6999 | – | 1350.17
x1 = 0.7 | 0.2 | –
x1 = 0.7499 | – | 1378.23
x1 = 0.75 | 0.194 | –
x1 = 0.8 | 0.184 | 1405.94
x1 = 0.85 | 0.168 | –
x1 = 0.8502 | – | 1433.58
x1 = 0.9 | 0.142 | –
x1 = 0.9002 | – | 1461.09
x1 = 0.95 | 0.1 | 1488.03
x1 = 0.9749 | – | 1501.9
x1 = 0.975 | 0.0629 | –
x1 = 1 | – | 1516.5

COC(F)(F)C(F)(F)C(F)(F)C(F)(F)F [1-methoxy-nonafluorobutane] + COCCOCCO
Settings | mass density [kg/m3]
[1], x1 = 1 | 1516.5

COCCOCCOC [2,5,8-trioxanonane]
Settings | mass density [kg/m3]
[2] | 938.62

COC(F)(F)C(F)(F)C(F)(F)C(F)(F)F [1-methoxy-nonafluorobutane] + COCCO
Settings | excess molar enthalpy, [3] [kcal/mol] | mass density, [1] [kg/m3]
x1 = 0.00553 | – | 965.99
x1 = 0.01007 | – | 970.85
x1 = 0.02663 | – | 988.18
x1 = 0.02992 | – | 991.62
x1 = 0.03967 | – | 1001.54
x1 = 0.04976 | – | 1011.78
x1 = 0.05 | 0.0487 | –
x1 = 0.05995 | – | 1021.9
x1 = 0.06979 | – | 1031.53
x1 = 0.07991 | – | 1041.28
x1 = 0.08992 | – | 1050.63
x1 = 0.09992 | – | 1059.88
x1 = 0.1 | 0.0727 | –
x1 = 0.1999 | – | 1144.03
x1 = 0.2 | 0.1 | –
x1 = 0.2999 | – | 1215.05
x1 = 0.3 | 0.119 | –
x1 = 0.4 | – | 1275.68
x1 = 0.4001 | 0.133 | –
x1 = 0.5 | 0.144 | –
x1 = 0.5001 | – | 1328.23
x1 = 0.5501 | 0.149 | –
x1 = 0.5997 | – | 1373.83
x1 = 0.6001 | 0.154 | –
x1 = 0.6501 | 0.153 | –
x1 = 0.7001 | 0.153 | 1414.55
x1 = 0.75 | 0.151 | –
x1 = 0.8001 | 0.146 | –
x1 = 0.8005 | – | 1451
x1 = 0.85 | 0.137 | –
x1 = 0.8997 | – | 1483.83
x1 = 0.9 | 0.121 | –
x1 = 0.9106 | – | 1487.37
x1 = 0.9204 | – | 1490.55
x1 = 0.9304 | – | 1493.65
x1 = 0.9403 | – | 1496.79
x1 = 0.95 | 0.0872 | –
x1 = 0.9508 | – | 1500.13
x1 = 0.9604 | – | 1503.16
x1 = 0.971 | – | 1506.5
x1 = 0.975 | 0.0582 | –
x1 = 0.98 | – | 1509.57
x1 = 0.99 | – | 1512.86
x1 = 0.9948 | – | 1514.59
x1 = 1 | – | 1516.5

COCCO [2-methoxyethan-1-ol]
Settings | mass density [kg/m3]
[2] | 960.01

CCCCOCCO [2-butoxyethan-1-ol] + COC(F)(F)C(F)(F)C(F)(F)C(F)(F)F
Settings | mass density [kg/m3]
[1], x2 = 0 | 896.25

CCOCCO [2-ethoxyethan-1-ol] + COC(F)(F)C(F)(F)C(F)(F)C(F)(F)F
Settings | mass density [kg/m3]
[1], x2 = 0 | 924.92

COCCOCCO [2-(2-methoxyethoxy)ethanol]
Settings | mass density [kg/m3]
[2] | 1015.6

COCCOCCOC [2,5,8-trioxanonane] + COC(F)(F)C(F)(F)C(F)(F)C(F)(F)F
Settings | mass density [kg/m3]
[1], x2 = 0 | 938.62
